Four compounds from ChEMBL document CHEMBL1201862, “PubChem BioAssay data set” (2004) can be followed below.

Among the test systems are COLO 205; HCC 2998; HCT-116; HCT-15; HOP-62; IGROV-1; MOLT-4; Malme-3M; NCI/ADR-RES; OVCAR-4; OVCAR-8; SF-268; SK-MEL-28; SNB-19; SR; U-251; UO-31; OVCAR-3; RPMI-8226.
Common to all, as to assay: NCI-60 cell line screen, 48 h

The structures appear in SMILES notation.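 Grown in 96-well plates, cells were treated for 48 hours with each compound at five concentrations. Insufficient inhibition: endpoint recorded as highest concentration tested. The concentration for 50% growth inhibition is given as GI50.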 Active and inactive are the calls of the source. Rule as the data show it: active = GI50 up to about 1.1 µM and inactive = higher.

In the case of `O=C1c2cccc3cc([N+](=O)[O-])cc(c23)C(=O)N1c1ccc(OCCN2CCCC2)cc1`, the GI50 with COLO 205 is 9.46 µM (inactive); in the test on HCC 2998, 17.1 µM (inactive); in the test on HCT-116 it was 6.79 µM (inactive); in the test with HCT-15, 14.2 µM; with HOP-62, 30.5 µM (inactive); with IGROV-1, 12.3 µM (inactive). Besides, the GI50 in the test on MOLT-4 was 4.85 µM (inactive); with Malme-3M, 15 µM (inactive); in the test with NCI/ADR-RES, 32.5 µM (inactive); in the test on OVCAR-4 it was 28.1 µM (inactive); in the test with OVCAR-8 it was 19.8 µM (inactive); in the test with SF-268 it was 22 µM (inactive). Also, the GI50 in the test with SK-MEL-28 was 23 µM (inactive); with SNB-19, 26.1 µM (inactive); with SR, 2.23 µM (inactive); in the test on U-251, 16.1 µM (inactive); in the test on UO-31 it was 13.6 µM (inactive).
Take `COc1cc2c(c(OC)c1OC)C(=O)[C@H]1OC(=O)N[C@@H]21`: the GI50 is > 100 µM (inactive) in the test with COLO 205; > 100 µM (inactive) with HCC 2998; > 100 µM (inactive) in the test on HCT-116; more than 100 µM in the test on HCT-15; > 100 µM (inactive) in the test on HOP-62; > 100 µM (inactive) in the test with MOLT-4. Also, the GI50 in the test on NCI/ADR-RES, with OVCAR-3, in the test with OVCAR-4, in the test on OVCAR-8, in the test with RPMI-8226 and in the test with SF-268 was > 100 µM (inactive) each time. In addition, the GI50 with SK-MEL-28, with SNB-19, with SR, with U-251 and in the test with UO-31 was > 100 µM (inactive) in each case.
Take `Cn1c2ccccc2c(=S)c2cc(NC(=O)CCCCC(=O)Nc3ccc4c(c3)c(=S)c3ccccc3n4C)ccc21`: the GI50 in the test with COLO 205 is > 100 µM (inactive); in the test on HCC 2998 it was > 100 µM (inactive); in the test with HCT-116 it was > 100 µM (inactive); with HCT-15, more than 100 µM; in the test with HOP-62, 54.7 µM (inactive); in the test with IGROV-1, > 100 µM (inactive). The GI50 is > 100 µM (inactive) in the test on MOLT-4; > 100 µM (inactive) in the test on NCI/ADR-RES; > 100 µM (inactive) in the test on OVCAR-3; 34.3 µM (inactive) with OVCAR-8; > 100 µM (inactive) in the test with RPMI-8226; > 100 µM (inactive) in the test with SF-268. Besides, the GI50 with SK-MEL-28 was > 100 µM (inactive); in the test on SNB-19, > 100 µM (inactive); in the test on SR it was > 100 µM (inactive); with U-251, 55.8 µM (inactive); in the test on UO-31, > 100 µM (inactive).
Turning to `CCOP(=O)(OCC)/C(C#N)=C/c1cccn1C(C)C`, the GI50 with COLO 205 is > 100 µM (inactive); in the test on HCC 2998 it was > 100 µM (inactive); with HCT-116, > 100 µM (inactive); in the test on HCT-15, more than 100 µM; in the test with HOP-62 it was > 100 µM (inactive); in the test with IGROV-1, > 100 µM (inactive). Further, the GI50 in the test on MOLT-4, in the test on Malme-3M, in the test with NCI/ADR-RES, in the test on OVCAR-3, with OVCAR-8 and in the test on SF-268 was > 100 µM (inactive) throughout. The GI50 in the test on SK-MEL-28, with SNB-19, with SR, in the test with U-251 and in the test with UO-31 was > 100 µM (inactive) each time.
